By melting point is commonly meant the temperature of the solid-liquid transition. By Ki is commonly meant the equilibrium dissociation constant of an inhibitor or competing ligand from its target.

Data on three compounds can be found in patent US6344452B1, “1,5-benzodiazepine derivatives” (Zeria Pharmaceuticals Co., Ltd., priority 1998, dated 2002).

Series [1] has as its system pentagastrin-stimulated acid secretion. Description: Inhibition test on pentagastrin-stimulated acid secretion in beagles with Heidenhain pouch. The class given is in vivo, beagle. To be noted: 1 mg/kg oral (gelatin capsules), acid output 1st to 4th hour after administration. Here is the method: <Inhibition Test on Pentagastrin-stimulated Acid Secretion in Beagles with Heidenhain Pouch>
Male beagles with Heidenhain pouch formed beforehand were used. Pentagastrin was continuously and intravenously injected at 4 μg/kg/hr. Upon an elapsed time of 3 hours after the initiation of the continuous injection of pentagastrin, each test compound was filled in gelatin capsules and orally administered. The acidity of sampled gastric juice was measured using an autotitrater, and a product of the acidity and the amount of the gastric juice was recorded as an acid output. Supposing -that an acid output during 1 hour preceding the administration was 100%, acid output over 3 hours ranging from the 1st hour to the 4th hour after the administration of the test compound were converted into percentages (acid output percentages). Based on such acid output percentages, the acid output inhibition rate of each beagle was determined using the below-described formula. An average of such acid output inhibition rates was recorded as the acid inhibition rate of the compound. […] [formula]

Series [2] has the same test system. In words: Inhibition test on pentagastrin-stimulated acid secretion in rats. The series is classed as in vivo, rat. To be noted: SD rats, acid output 1st to 4th hour after administration. The protocol:
<Inhibition Test on Pentagastrin-stimulated Acid Secretion in Rats>
Male Sprague-Dawley (SD) strain rats were used. Under anesthesia with ethyl ether, operations were performed on each rat to ligate the gastric antrum and also to arrange an intraduodenal catheter and a gastric fistula tube. After completion of the operations, the rat was placed in a Ballmann cage, and pentagastrin was continuously injected at 15 μg/kg/hr through the caudal vein. Each test compound was formed into a suspension by using a 0.5% carboxymethylcellulose sodium solution (hereinafter called “the solvent”). Upon an elapsed timeof 1 hour from the initiation of the injection of pentagastrin, the solvent or the test compound was administered through the intraduodenal catheter. The acidity of sampled gastric juice was measured using an autotitrater, and a product of the acidity and the amount of the gastric juice was recorded as an acid output. […] [formula]

For series [3], the target named is T1, CCK-A receptor (Cavia porcellus, UniProt Q63931).
T1 construct: The homogenate was provided as a receptor sample; from tissue; host or cells: guinea pig pancreas membrane homogenate
T1 sequence (Q63931 1-430): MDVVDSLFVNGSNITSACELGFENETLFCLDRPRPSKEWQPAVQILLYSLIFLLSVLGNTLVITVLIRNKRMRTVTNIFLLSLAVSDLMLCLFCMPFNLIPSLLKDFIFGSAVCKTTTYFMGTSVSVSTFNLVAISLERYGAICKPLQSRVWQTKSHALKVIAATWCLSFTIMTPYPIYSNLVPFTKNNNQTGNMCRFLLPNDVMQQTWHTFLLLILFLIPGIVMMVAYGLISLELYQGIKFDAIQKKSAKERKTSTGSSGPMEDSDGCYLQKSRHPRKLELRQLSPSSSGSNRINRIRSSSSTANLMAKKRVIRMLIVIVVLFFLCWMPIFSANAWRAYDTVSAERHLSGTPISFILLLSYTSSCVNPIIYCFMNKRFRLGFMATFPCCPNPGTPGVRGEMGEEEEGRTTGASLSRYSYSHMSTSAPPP
Description: CCK-A receptor binding test ([3H]L-364,718, guinea pig pancreas). The following applies: [3H]L-364,718 0.2 nM, guinea pig pancreas membranes, 25° C., 2 hours; read-out: binding inhibition constant (Ki value). The protocol:
<CCK-A Receptor Binding Test>
From a male Hartley strain guinea pig, the pancreas was removed. The pancreas was homogenized with 10 mM PIPES buffer (pH 6.5, hereinafter called “the solvent”) in an amount 40 times as much as the weight of the pancreas. The solvent contained EGTA (1 mM), magnesium chloride (30 mM), bacitracin (0. 02%) , soybean trypsin inhibitor (0.02%), and sucrose (0.3 M). After filtered through gauze, the homogenate was centrifuged under 50,000 g for 10 minutes. To the resulting pellet, the solvent was added again in an amount as much as the pellet, followed by centrifugation. To the thus-obtained pellet the solvent was added in an amount 40 times as much as the pellet, and the pellet was homogenized. […]
As a binding experiment, a solution (50 μL) of [^3H]L-364,718 (devazepide), said solution having a final concentration of 0.2 nM, and the receptor sample (protein content: 50 μg/tube) (900 μL) were added to the solvent, an L-364,718 solution of a final concentration of 1 μM or a test compound solution (50 μL), followed by a reaction at 25° C. for 2 hours. […] ACS-II scintillator was added to the filter and, after the filter was left over for 24 hours, the radioactivity concentration on the filter was measured by a liquid scintillation counter. […] From the specific binding of [^3H]L-364,718, the binding inhibition constant (Ki value) of the compound was calculated.

For series [4], the target named is T2, CCK-B receptor (Cavia porcellus, UniProt H0VZC5).
T2 construct: the homogenate was provided as a receptor sample; from tissue; host or cells: guinea pig cerebral cortex membrane homogenate
T2 sequence (H0VZC5 1-426): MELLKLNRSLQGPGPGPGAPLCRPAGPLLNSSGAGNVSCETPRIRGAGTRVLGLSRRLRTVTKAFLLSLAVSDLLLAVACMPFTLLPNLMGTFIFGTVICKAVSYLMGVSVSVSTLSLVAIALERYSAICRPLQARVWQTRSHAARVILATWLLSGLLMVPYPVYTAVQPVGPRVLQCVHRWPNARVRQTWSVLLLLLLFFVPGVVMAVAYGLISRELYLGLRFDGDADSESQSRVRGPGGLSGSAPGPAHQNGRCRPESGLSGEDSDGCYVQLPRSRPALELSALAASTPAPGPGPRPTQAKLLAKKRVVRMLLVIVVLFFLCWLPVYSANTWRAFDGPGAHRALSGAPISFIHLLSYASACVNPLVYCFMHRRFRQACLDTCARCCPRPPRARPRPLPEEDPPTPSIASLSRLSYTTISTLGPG
Description: CCK-B receptor binding test ([3H]CCK-B, guinea pig cerebral cortex). To be noted: [3H]CCK-B 1.0 nM, guinea pig cerebral cortex membranes, 25° C., 2 hours; read-out: binding inhibition constant (Ki value). The protocol: <CCK-B Receptor Binding Test>
From a male Hartley strain guinea pig, the cerebral cortex was removed. After the cerebral cortex was homogenized with 50 mM tris-HCl buffer (pH 7.4) in an amount 50 times as much as the weight of the cerebral cortex, the homogenate was centrifuged under 50,000 g for 10 minutes. With respect to the resulting pellet, addition of the same buffer in the same amount and centrifugation were repeated twice. […]
As a binding experiment, a [^3H]CCK-B solution of a final concentration of 1.0 nM (50 μL) and the receptor sample (protein content: 800 μg/tube) (900 μL) were added to the solvent, the CCK-B solution of a final concentration of 1.0 μM or a test compound solution (50 μL), followed by a reaction at 25° C. for 2 hours. […] ACS-II scintillator was added to the filter and, after the filter was left over for 24 hours, the radioactivity concentration on the filter was measured by a liquid scintillation counter. A binding in the presence of CCK-B (1 μM) was recorded as a non-specific binding, while a value obtained by subtracting the non-specific binding from a full binding, which had been obtained using the solvent instead of CCK-B, was recorded as a specific binding. From the specific binding of [^3H]CCK-B, the binding inhibition constant (Ki value) of the compound was calculated.

On to `CC(C)(C)C(=O)CN1C(=O)C(NC(=O)Nc2cccc(C(C)(C)C(=O)O)c2)CN(C2CCCCC2)c2ccccc21` (racemic) [Example 1, (±)-2-[3-[3-(1-tert-butylcarbonylmethyl-2-oxo-5-cyclohexyl-1,3,4,5-tetrahydro-2H-1,5-benzodiazepin-3-yl)ureido]phenyl]-2-methylpropionic acid], for which the melting point is 215 to 216 °C (dec.).

`CC(C)(C)C(=O)CN1C(=O)[C@H](NC(=O)Nc2cccc(C(C)(C)C(=O)O)c2)CN(C2CCCCC2)c2ccccc21` [Example 2, (R)-(−)-2-[3-[3-(1-tert-butylcarbonylmethyl-2-oxo-5-cyclohexyl-1,3,4,5-tetrahydro-2H-1,5-benzodiazepin-3-yl)ureido]phenyl]-2-methylpropionic acid]: the figures for the acid secretion inhibition in series [1] and in series [2] (0.3 mg/kg intraduodenal) were 77.9% and 72.7%, respectively. Moreover, the Ki turned out to be 0.438 µM in series [3] and 0.00074 µM in series [4].

Turning to `CC(C)(C)C(=O)CN1C(=O)[C@H](NC(=O)Nc2cccc(C(C)(C)C(=O)O)c2)CN(C2CCCCC2)c2ccccc21` [Example 5, sodium (R)-2-[3-[3-(1-tert-butylcarbonylmethyl-2-oxo-5-cyclohexyl-1,3,4,5-tetrahydro-2H-1,5-benzodiazepin-3-yl)ureido]phenyl]-2-methylpropionate], the acid secretion inhibition in series [2] (0.1 mg/kg intraduodenal) is 48.4%; in series [2] (0.3 mg/kg intraduodenal), 79.3%.
